Test results: patent publication US10240133B2, “ERK-derived peptides and uses thereof” (Yeda Research and Development Co. Ltd., priority 2013, dated 2019)
Entries after “also recorded” stand apart in the source; their conditions may differ.

Tests used:
[1] = tested on: low passage A2352 B-Raf melanoma xenograft; test: Tumor xenograft growth; format: in vivo, SCID mice; settings: tail vein administration
Experimental: FIGS. 6A-6B illustrate that the EPE peptide prevents the growth of human tumor xenografts. CD-1 nude mice were inoculated with MDA-MB-231, LOXIMVI and HCT-116 cells, and SKID mice were inoculated with A2352 cells. Upon tumors establishment, the mice were treated intravenously with the DMSO as well as EPE or Scr peptides in the indicated doses, 3 times a week. The results are averages of 5 mice in each experimental group. The X, Y, Z dimensions of the tumors were measured with a caliper, and the volume was calculated accordingly. The significance of all experiments was at least P<0.001. (B) The EPE peptide prevents tumor recurrence on melanoma xenograft. SCID mice were inoculated with A2352 cells. Upon establishment of tumors mice were treated intravenously with 15 mg/kg EPE peptide (n=7) or intraperitonealy with 15 mg/kg PLX4032 (n=5), at the indicated dose 3 times a week. Tumor size was recorded at the same time using a caliper. Following 3 weeks of treatment, mice were kept for further evaluation monitoring for any tumor recurrence of the effective treated melanoma xenografts. Experiment was concluded 110 days post inoculation (11 weeks after the last treatment) and the overall state of the animals was evaluated. sac=sacrificed, recur=recurrence, met=metastasis.
Tumor dimensions were measured with a digital sliding caliper.

B-Raf melanoma cells = test: Morphology assay (light microscopy); format: cell-based; settings: 10 μM
Experimental: (§1) FIGS. 5A-5D illustrate that the EPE peptide leads to apoptosis of B-Raf mutant cancer cells. (A) The EPE peptide affects the morphology of treated cells. The indicated cells were treated with either the EPE or Scr peptides, DMSO, or taxol for 72 h, and photographed by a light microscope. (B) The EPE peptide induces apoptosis in melanoma cells detected by TUNEL. The indicated cell lines were treated as in A for 24 h. Apoptosis was detected by TUNEL staining. Images were obtained by florescence microscope. (C) Quantification of B. The bar-graph represents percent of apoptotic cells calculated in 10 different fields. (D) The EPE peptide induces apoptosis of melanoma cells detected by PARP cleavage. The indicated cell lines were treated as in (A) for 24 h. Cell extracts were subjected to Western blotting with αPARP Ab.
Cells were seeded on glass cover slips in a 12-wells plate at 25% confluence with medium containing 1% of FCS. Peptides (EPE or Scr), DMSO, or U0126 in a final concentration of 10 μM, were added after 4 h (considered as time “0”). TUNEL staining was performed at 24 h after the treatment according to manufacturer instruction (Roche Applied Science, Nutley, N.J., USA). Briefly, the medium was removed and cells were fixed with 3% of paraformaldehyde (1.5 h, 23° C.). Cells were rinsed twice with PBS and permeabilized with 0.1% Triton X-100 and 0.1% sodium citrate for 2 min on ice. Cells were rinsed twice with PBS and 28 μl of TUNEL reaction mixture (25 μl of TUNEL label, 2.5 μl of TUNEL enzyme and 0.1 mg/ml of DAPI) was added directly on top of the slide, cells were incubated for 16 h in humid box at 37° C. Cover slips were rinsed three times with PBS and mounted on microscope slides. The slides were dried and then subjected to image acquisition by a florescence microscope. For morphology assay, the cells were seeded at approximately 25% confluence in 6 cm plates with medium containing 1% FCS. Peptides (EPE and Scr) or DMSO or U0126 in a final concentration of 10 μM, were added after 4 h (considered to be time 0), 24 h and 48 h. […]

[2] = Systemic toxicity in xenograft-bearing mice (body weight, organ histology); settings: treated animals, end of experiment
Experimental: Female SCID mice (Harlan), 5-6 weeks of age, were inoculated s.c. into the flank region with 10^7 A2352 cells in 150 μl mixture of PBS with matrigel (2:1). Tumors were allowed to develop to the size of 5-6.5 mm in diameter (50˜110 mm^3 volume) and then the animals were randomly allocated to different treatment groups. The peptides (100 mM stock in DMSO), were diluted to the necessary concentration in PBS and boiled for 5 minutes. Then, DMSO, Scr or EPE peptides were administered by i.v. injection into the tail vein (150 μl/mouse, 3 times a week). Tumor dimensions were measured with a digital sliding caliper. Tumor volume was calculated using the formula: V=D1×D2×D3×π/6, where D1, D2, D3—represent the three mutually orthogonal growth diameters. To assess any signs of systemic toxicity, body weight was monitored, and recorded at the end of the experiment.
Tumor xenografts, lungs, livers, kidneys and hearts of animals from different treatment groups were removed and subjected for histological analysis by staining of 5 μm paraffin embedded tissue slides with H&E, and examination by light microscope. […] Briefly, paraffin embedded blocks of tumors after different treatments were cut at 4 μm thickness and stained with ERK Abs, followed by second antibodies conjugated to peroxidase and DAB staining. Representative fields of each specimen were photographed at ×20 and ×40 magnifications.

ERK1/2 = test: Western blotting of ERK phosphorylation (TEY, NTS); format: cell-based
Experimental: (A) EPE peptide prevents ERK1/2-importin7 interaction. HeLa cells were serum starved (0.1%, 16 hours), pretreated with EPE peptide, scrambled peptide (10 μM, 2 hours) or DMSO, and then stimulated with TPA (250 nM, 15 min). ERK1 were precipitated with αgERK1 Ab; importin7 co-immunoprecipitated with ERK1 was detected by WB with αimportin7 Ab. […] T47D, HeLa, MDA-MB-231 and A2352 cells were serum starved (0.1%, 16 hours), pretreated with EPE peptide, scrambled peptide (10 μM, 2 hours) or DMSO control, and then stimulated with TPA (250 nM, indicated times). Cell extracts were subjected to Western blot analysis with the indicated Abs. (C) EPE peptide inhibits phosphorylation of c-Myc and Elk1 in B-Raf melanomas. A2158 and A2352 cells were treated with scrambled and EPE peptide for two hours and then stimulated with the indicated concentration of TPA for 30 min. […] (D) Quantification of some of the results in B and C. […]
(i) Preparation of cellular extracts for Western Blotting: Cells were rinsed twice with ice-cold PBS and scraped into Radio-immunoprecipitation assay buffer (RIPA; 137 mM NaCl, 20 mM Tris (pH 7.4), 10% glycerol, 1% Triton X-100, 0.5% deoxycholate, 0.1% SDS, 2 mM EDTA, 1 mM PMSF, and 20 μM leupeptin). The extracts were centrifuged (20,000×g, 15 min, 4° C.), and the supernatants were further analyzed by Western blotting. […]

[3] = tested on: other cell lines examined; test: Apoptosis (TUNEL, PARP-1 cleavage); format: cell-based
Experimental: as §1
Cells were seeded on glass cover slips in a 12-wells plate at 25% confluence with medium containing 1% of FCS. Peptides (EPE or Scr), DMSO, or U0126 in a final concentration of 10 μM, were added after 4 h (considered as time “0”). TUNEL staining was performed at 24 h after the treatment according to manufacturer instruction (Roche Applied Science, Nutley, N.J., USA). Briefly, the medium was removed and cells were fixed with 3% of paraformaldehyde (1.5 h, 23° C.). Cells were rinsed twice with PBS and permeabilized with 0.1% Triton X-100 and 0.1% sodium citrate for 2 min on ice. Cells were rinsed twice with PBS and 28 μl of TUNEL reaction mixture (25 μl of TUNEL label, 2.5 μl of TUNEL enzyme and 0.1 mg/ml of DAPI) was added directly on top of the slide, cells were incubated for 16 h in humid box at 37° C. Cover slips were rinsed three times with PBS and mounted on microscope slides. The slides were dried and then subjected to image acquisition by a florescence microscope. For morphology assay, the cells were seeded at approximately 25% confluence in 6 cm plates with medium containing 1% FCS. Peptides (EPE and Scr) or DMSO or U0126 in a final concentration of 10 μM, were added after 4 h (considered to be time 0), 24 h and 48 h. Images were obtained by a light microscope (Olympus BX51) after 72 h.

With “GQLNHILGILGEPEQED (Synthetic peptide (EPE)) [EPE peptide, NTS-derived peptide with phosphomimetic EPE motif]” the “time to complete eradication of melanoma xenograft” value [1] was ≤ 2 weeks, the cell morphology (B-Raf melanoma cells) was “inducing cell-break already 24 hours after treatment” and the “change in weight, organ morphology or other toxicity-related effects” value [2] was “None of the animal treated exhibited any significant change”. The “NTS phosphorylation (by CK2) of ERK1/2” value (ERK1/2; T47D, HeLa, MDA-MB-231 and A2352 cells) was “only slightly affected; also recorded: prevents ERK1/2's NTS”, the “activatory ERK-TEY phosphorylation” value (ERK1/2; four distinct cell lines) was “no effect” and the “apoptosis / cell death” value [3] was “No apoptosis was detected”.
